Patent US7745152B2, “Method for determining genotoxicity” (priority 2004, dated 2010)
Structures can show the parent of a compound that is named as a salt. Where two headings read alike, the source gives them in different places. *1 amine or outer side, *2 acyl side, *3 side chain or, on linkers, in order; H or OH if unused. Where a SMILES comes first, the peptide text is derived from it. Bridges are numbered along the chain shown (N, C = ends). Roman numbers before positions name the chains, in order. [ ]: non-standard residue; d: D form. Actinocin(9to1) = Cc1c2oc3c(C)ccc(C(=O)[*:1])c3nc-2c(C(=O)[*:2])c(N)c1=O; NMeV = CN[C@H](C(=O)O)C(C)C; Sar = CNCC(=O)O

How the values were obtained:
[1] = system: C2C12 cells
[2] = system: DDA3; settings: cited from earlier work
[3] = system: 4833427G06Rik mRNA; assay: RT-PCR assay of 4833427G06Rik (Dog1) mRNA in C2C12 cells; type: cell-based, mouse; settings: C2C12, 24 hour drug, 18 hour differentiation; relative to vehicle
[4] = system: Dda3 mRNA; assay: RT-PCR assay of Dda3 mRNA in C2C12 cells; type: cell-based, mouse; settings: C2C12, 24 hour drug, 18 hour differentiation; relative to vehicle
[5] = system: C2C12 cells; assay: Genomic assay: gene expression analysis (Affymetrix Murine Genome MOE430) in C2C12 cells induced to differentiate
Method: Three independent replicates were generated for each drug and time point. Sample processing was carried out according to protocols described in the Affymetrix Expression Analysis Technical Manual. Briefly, total RNA was isolated from cells by the acid guanidinium thiocyanate-phenol-chloroform extraction method (Trizol®, Invitrogen, Carlsbad, Calif.). Twice purified poly(A+) RNA was isolated and reverse transcribed using a T7-promoter coupled oligo(dT) primer, followed by in vitro transcription. The labeled samples were applied to the Affymetrix Murine Genome MOE430 set and were hybridized overnight at 45° C./60 rpm, washed using a FS450 Fluidics station, and scanned on a GS3000 scanner. The resulting image files were analyzed using Affymetrix software (Microarray Analysis Suite version 5.0).
To measure the effect of drug treatment on cellular gene expression, replicate data obtained from each drug and time point were compared with replicates for vehicle-matched controls using the Student t-test. The gene expression levels were Log transformed before applying the Student t-test. The fold change of the average expression level between the control and drug-treated cells was also calculated. […] A gene was considered expressed if the Affymetrix software determined that the gene was “present” in two out of the three replicates. This ensured that true expression changes were identified, and could be distinguished from background variability. Second, the calculated expression change for each of five tested drugs was at least 2 fold, and the calculated p-value for the expression change using the Student t-test was less than 0.01.

[6] = C2C12, 24 h drug (μg/ml: BLEO 0.5, CIS 0.6, ETOP 0.5, MMS 0.008, MNNG 4, VINC 0.6), then 6, 18 or 24 h differentiation, vs DMSO

Compound: CC(=O)O[C@H]1C(=O)[C@@]2(C)[C@H]([C@H](OC(=O)c3ccccc3)[C@]3(O)C[C@H](OC(=O)[C@H](O)[C@@H](NC(=O)c4ccccc4)c4ccccc4)C(C)=C1C3(C)C)[C@]1(OC(C)=O)CO[C@@H]1C[C@@H]2O [Paclitaxel]
- Lowest effective dose ([1]; mouse, 24 h): 0.002 µg/mL

Compound: COc1cccc2c1C(=O)c1c(O)c3c(c(O)c1C2=O)C[C@@](O)(C(=O)CO)C[C@@H]3O[C@H]1C[C@H](N)[C@H](O)[C@H](C)O1 [adriamycin]
- DDA3 expression in NIH3T3 cells exposed to DNA damaging agents [2]: upregulated

Compound: CC/C(=C(/CC)c1ccc(O)cc1)c1ccc(O)cc1 [Diethylstilbestrol (DES), Diethylstilbestrol]
- Lowest effective dose ([1]; mouse, 24 h): 1.8 µg/mL

Compound: O=[N+]([O-])c1ccc2c(c1)Cc1ccccc1-2 [2-nitrofluorene]
- Lowest effective dose ([1]; mouse): 5.2 µg/mL

Compound: O=c1[nH]cc(F)c(=O)[nH]1 [5-fluorouracil]
- Lowest effective dose ([1]; mouse, 24 h): 0.0008 µg/mL

Compound: Cc1c2oc3c(C)ccc(C(=O)N[C@@H]4C(=O)N[C@H](C(C)C)C(=O)N5CCC[C@H]5C(=O)N(C)CC(=O)N(C)[C@@H](C(C)C)C(=O)O[C@@H]4C)c3nc-2c(C(=O)N[C@@H]2C(=O)N[C@H](C(C)C)C(=O)N3CCC[C@H]3C(=O)N(C)CC(=O)N(C)[C@@H](C(C)C)C(=O)O[C@@H]2C)c(N)c1=O [Actinomycin D] (I: T[dV]P[Sar][NMeV] / II: T[dV]P[Sar][NMeV]; ester I:1-I:C, II:1-II:C; linker I:N-II:N via Actinocin(9to1))
- Lowest effective dose [1]: 0.00075 µg/mL

Compound: CO[C@@]12[C@H](COC(N)=O)C3=C(C(=O)C(C)=C(N)C3=O)N1C[C@@H]1N[C@@H]12 [Mitomycin C]
- DDA3 expression in NIH3T3 cells exposed to DNA damaging agents [2]: upregulated

Compound: COc1cccc2c1C(=O)c1c(O)c3c(c(O)c1C2=O)C[C@@](O)(C(=O)CO)C[C@@H]3O[C@H]1C[C@H](N)[C@H](O)[C@H](C)O1 [Doxorubicin HCl]
- Lowest effective dose ([1]; mouse, 24 h): 0.005 µg/mL

Compound: Bleomycin sulfate
- Lowest effective dose [1]: 1 µg/mL

Compound: N.N.[Cl][Pt][Cl] [Cisplatin]
- Lowest effective dose [1]: 0.15 µg/mL
- extreme block of differentiation: cell death in differentiation media [1]: the cells begin to die after 3 days in differentiation media

Compound: CCOS(C)(=O)=O [Methanesulfonate ethyl ester (EMS), Methanesulfonate ethyl ester]
- Lowest effective dose ([1]; mouse, 24 h): 100 µg/mL

Compound: CC[C@]1(O)C[C@@H]2CN(CCc3c([nH]c4ccccc34)[C@@](C(=O)OC)(c3cc4c(cc3OC)N(C)[C@H]3[C@@](O)(C(=O)OC)[C@H](OC(C)=O)[C@]5(CC)C=CCN6CC[C@]43[C@@H]65)C2)C1 [Vinblastine sulfate]
- Lowest effective dose ([1]; mouse, 24 h): 0.0006 µg/mL
- relative expression of 4833427G06Rik mRNA [3]: much larger increase in expression of these indicator genes than did vincristine
- relative expression of Dda3 mRNA [4]: much larger increase in expression of these indicator genes than did vincristine

Compound: CC[C@]1(O)C[C@H]2CN(CCc3c([nH]c4ccccc34)[C@@](C(=O)OC)(c3cc4c(cc3OC)N(C=O)[C@H]3[C@@](O)(C(=O)OC)[C@H](OC(C)=O)[C@]5(CC)C=CCN6CC[C@]43[C@@H]65)C2)C1 [Vincristine sulfate]
- Lowest effective dose ([1]; mouse, 24 h): 0.002 µg/mL
- Fold change in expression: 0610013D04 Rik, RIKEN cDNA [5, 6]: 2.00 fold
- Fold change in expression: 1600013K19 Rik, RIKEN cDNA [5, 6]: 0.98 fold
- Fold change in expression: 2610005B21 Rik, RIKEN cDNA [5, 6]: 0.81 fold
- Fold change in expression: 2610019I03 RIK, RIKEN cDNA [5, 6]: 0.76 fold
- Fold change in expression: 2610509G12 Rik, RIKEN cDNA [5, 6]: 0.55 fold
- Fold change in expression: 2810417H13 Rik, RIKEN cDNA [5, 6]: 0.96 fold
- Fold change in expression: 4833427G06 Rik, RIKEN cDNA [5, 6]: 0.98 fold
- Fold change in expression: 6530401L14 Rik, RIKEN cDNA [5, 6]: 0.53 fold
- Fold change in expression: 9030617O03 Rik, RIKEN cDNA [5, 6]: 1.20 fold
- Fold change in expression: Anxa8, Annexin A8 [5, 6]: 1.80 fold
- Fold change in expression: Asflb, ASF1 anti-silencing function 1 homolog B (Saccharomyces) [5, 6]: 0.71 fold
- Fold change in expression: Birc5, Baculoviral IAP repeat-containing 5 [5, 6]: 0.87 fold
- Fold change in expression: Brca1, Breast cancer 1 [5, 6]: 0.51 fold
- Fold change in expression: Calmbp1, Calmodulin binding protein 1 [5, 6]: 0.40 fold
- Fold change in expression: Capn6, Calpain 6 [5, 6]: 0.83 fold
- Fold change in expression: Ccna2, Cyclin A2 [5, 6]: 0.82 fold
- Fold change in expression: Ccng1, Cyclin G1 [5, 6]: 1.80 fold
- Fold change in expression: Cilp, Cartilage intermediate layer pro [5, 6]: 0.77 fold
- Fold change in expression: Cks2, CDC28 protein kinase regulatory subunit 2 [5, 6]: 0.78 fold
- Fold change in expression: D4Ertd421e, DNA segment, Chr 4, ERATO Doi 421, expressed [5, 6]: 0.64 fold
- Fold change in expression: Dda3-pending, Differential display and activated by p53 [5, 6]: 2.00 fold
- Fold change in expression: E2f7, E2F transcription factor 7 [5, 6]: 0.63 fold
- Fold change in expression: E030024M05 Rik, RIKEN cDNA [5, 6]: 1.20 fold
- Fold change in expression: E130315B21 Rik, RIKEN cDNA [5, 6]: 0.70 fold
- Fold change in expression: Ephx1, Epoxide hydrolase 1 (microsomal xenobiotic hydrolase) [5, 6]: 1.10 fold
- Fold change in expression: Fbxo5, f-box only protein 31 [5, 6]: 0.54 fold
- Fold change in expression: Foxm1, Forkhead box M1 [5, 6]: 0.68 fold
- Fold change in expression: Gmnn, Geminin [5, 6]: 0.65 fold
- Fold change in expression: Gnpi, Glucosamine-6-phosphate deaminase [5, 6]: 1.60 fold
- Fold change in expression: Hgf, Hepatocyte growth factor (scatter factor) [5, 6]: 2.00 fold
- Fold change in expression: Hmgb2, High mobility group box 2 [5, 6]: 0.57 fold
- Fold change in expression: Hmgb3, High mobility group box 3 [5, 6]: 0.67 fold
- Fold change in expression: Hmmr, Hyaluronan mediated motility receptor (RHAMM) [5, 6]: 0.52 fold
- Fold change in expression: Kifl1, Kinesin 11 [5, 6]: 0.46 fold
- Fold change in expression: Lek1, Leucine, glutamic acid, lysine family 1 protein [5, 6]: 0.45 fold
- Fold change in expression: Ly6e, Lymphocyte antigen 6 complex, locus E [5, 6]: 1.30 fold
- Fold change in expression: M-phosph1, M-phase phosphoprotein [5, 6]: 0.37 fold
- Fold change in expression: MGC:32192, Mus musculus cDNA clone MGC: 32192 IMAGE: 5006129 [5, 6]: 0.71 fold
- Fold change in expression: Mad2l1, MAD2 (mitotic arrest deficient, homolog)-like 1 (yeast) [5, 6]: 0.64 fold
- Fold change in expression: Mad3, Max dimerization protein 3 [5, 6]: 0.89 fold
- Fold change in expression: Mcm3, Minichromosome maintenance deficient 3 (Saccharomyces) [5, 6]: 0.69 fold
- Fold change in expression: Mcmd4, Minichromosome maintenance deficient 4 homolog [5, 6]: 0.64 fold
- Fold change in expression: Mki67, Antigen identified by MAb Ki67 [5, 6]: 0.43 fold
- Fold change in expression: Mmhead, Mus musculus 15 day embryo head cDNA clone [5, 6]: 0.95 fold
- Fold change in expression: Nos3, Nitric oxide synthase 3, endothelial cell [5, 6]: 1.30 fold
- Fold change in expression: Np95, Nuclear protein 95 [5, 6]: 0.71 fold
- Fold change in expression: Nusap1, Nucleolar and spindle associated protein 1 [5, 6]: 0.56 fold
- Fold change in expression: Osbp16, Oxysterol binding protein-like 6 [5, 6]: 1.10 fold
- Fold change in expression: Pbk, PDZ binding kinase [5, 6]: 0.62 fold
- Fold change in expression: Pcna, Proliferating cell nuclear antigen [5, 6]: 0.70 fold
- Fold change in expression: Phex, Phosphate regulating neutral endopeptidase (X chromosome) [5, 6]: 0.67 fold
- Fold change in expression: Plf, Proliferin [5, 6]: 1.10 fold
- Fold change in expression: Pola1, DNA polymerase alpha 1, 180 kDa [5, 6]: 0.51 fold
- Fold change in expression: Prc1, Protein regulator of cytokinesis 1 [5, 6]: 0.63 fold
- Fold change in expression: Prelp, Proline arginine-rich end leucine-rich repeat [5, 6]: 0.58 fold
- Fold change in expression: Prim1, DNA primase, p49 subunit [5, 6]: 0.54 fold
- Fold change in expression: Rad51ap1, RAD51-associated protein 1 [5, 6]: 0.59 fold
- Fold change in expression: Rbl1, Retinoblastoma-like 1 (p107) [5, 6]: 0.67 fold
- Fold change in expression: Serpine1, Ser (or Cys) proteinase inhibitor, clade E, member 1 [5, 6]: 1.00 fold
- Fold change in expression: Sesn2, Sestrin 2 [5, 6]: 2.38 fold
- Fold change in expression: Shcbp1, Shc SH2-domain binding protein 1 [5, 6]: 0.52 fold
- Fold change in expression: Slc35a5, Solute carrier family 35, member A5 [5, 6]: 1.30 fold
- Fold change in expression: Smc2l1, SMC2 structural maintenance of chromosomes 2-like 1 [5, 6]: 0.75 fold
- Fold change in expression: Stk18, Serine/threonine kinase 18 [5, 6]: 0.63 fold
- Fold change in expression: Tacc3, Transforming, acidic coiled-coil containing protein 3 [5, 6]: 0.73 fold
- Fold change in expression: Tagln, Transgelin (smooth muscle 22 protein) [5, 6]: 0.84 fold
- Fold change in expression: Tk1, Thymidine kinase 1 [5, 6]: 0.62 fold
- Fold change in expression: Top2a, Topoisomerase (DNA) II alpha [5, 6]: 0.52 fold
- Fold change in expression: Trp53inp1, Transformation related protein, 53 inducible nuclear protein 1 [5, 6]: 1.60 fold
- Fold change in expression: Usp30, Ubiquitin specific protease 30 [5, 6]: 2.00 fold
- Fold change in expression: Wig1, Wild-type p53-induced gene 1 [5, 6]: 1.20 fold
- pattern of gene expression changes ([5]; C2C12, vincristine sulfate 0.6 μg/ml 24 h, relative to the five other drugs tested): induced a distinct pattern of gene expression changes relative to the five other drugs tested
- Fold change in expression: Slc19a2, Solute carrier family 19 (thiamine transporter), member 2 ([5]; first Slc19a2 entry (r16), C2C12, 24 h drug (μg/ml: BLEO 0.5, CIS 0.6, ETOP 0.5, MMS 0.008, MNNG 4, VINC 0.6), then 6, 18 or 24 h differentiation, vs DMSO): 1.40 fold
- Fold change in expression: Slc19a2, Solute carrier family 19 (thiamine transporter), member 2 ([5]; second Slc19a2 entry (r72), C2C12, 24 h drug (μg/ml: BLEO 0.5, CIS 0.6, ETOP 0.5, MMS 0.008, MNNG 4, VINC 0.6), then 6, 18 or 24 h differentiation, vs DMSO): 1.10 fold
